# What was measured:
# Dysdercus koenigii = assay: Insecticidal activity against 5th instar nymph of Dysdercus koenigii assessed as mortality per nymph; format: functional
# Pyricularia grisea = assay: Antifungal activity against Magnaporthe grisea after 48 hrs by microbroth dilution method; format: functional
# Fusarium oxysporum = assay: Antifungal activity against Fusarium oxysporum after 48 hrs by microbroth dilution method; format: functional
# Drechslera = assay: Antifungal activity against Dreschlera oryzae after 48 hrs by microbroth dilution method; format: functional
# Debaryomyces hansenii = assay: Antifungal activity against Debaryomyces hansenii after 48 hrs by microbroth dilution method; format: functional
# [1] = Antifungal activity against Pichia membranifaciens after 48 hrs by microbroth dilution method; format: functional
# Candida albicans [2] = assay: Antifungal activity against Candida albicans NCIM 3557 after 48 hrs by microbroth dilution method; format: functional
# Candida albicans [3] = assay: Antifungal activity against Candida albicans after 48 hrs by microbroth dilution method; format: functional
# Candida albicans [4] = assay: Antifungal activity against Candida albicans NCIM 3471 after 48 hrs by microbroth dilution method; format: functional
# Nakaseomyces glabratus = assay: Antifungal activity against Candida glabrata NCIM 3237 after 48 hrs by microbroth dilution method; format: functional
# Cryptococcus neoformans [5] = assay: Antifungal activity against Cryptococcus neoformans after 48 hrs by microbroth dilution method; format: functional
# Cryptococcus neoformans [6] = assay: Antifungal activity against Cryptococcus neoformans NCIM 3541 after 48 hrs by microbroth dilution method; format: functional
# Cryptococcus neoformans [7] = assay: Antifungal activity against Cryptococcus neoformans NCIM 3542 after 48 hrs by microbroth dilution method; format: functional
# Cryptococcus neoformans [8] = assay: Antifungal activity against Cryptococcus neoformans NCIM 3378 after 48 hrs by microbroth dilution method; format: functional
# [9] = Toxicity in RBC assessed as induction of hemolysis; format: cell-based, Erythrocyte; conditions: red blood cells (RBC)
# [10] = Toxicity in RBC assessed as induction of hemolysis at MIC; format: cell-based, Erythrocyte; conditions: red blood cells (RBC); read-out: Activity
SMILES,LD50 (Dysdercus koenigii),MIC (Pyricularia grisea),MIC (Fusarium oxysporum),MIC (Drechslera),MIC (Debaryomyces hansenii),MIC [1],GI (Candida albicans [2]),GI (Candida albicans [3]),GI (Candida albicans [4]),GI (Nakaseomyces glabratus),GI (Cryptococcus neoformans [5]),GI (Cryptococcus neoformans [6]),GI (Cryptococcus neoformans [7]),GI (Cryptococcus neoformans [8]),HC50 [9],hemolysis [10]
Cc1cc(NC(=S)NC(=O)c2ccc(Cl)cc2)c(C(C)C)cc1O,20.8 µg,256 µg/mL,128 µg/mL,> 512 µg/mL,256 µg/mL,512 µg/mL,64 µg/mL,16 µg/mL,32 µg/mL,32 µg/mL,64 µg/mL,8 µg/mL,32 µg/mL,32 µg/mL,> 1000 µg/mL,< 2%
Cc1ccc(C(C)C)cc1O [CARVACROL],33.3 µg,128 µg/mL,64 µg/mL,64 µg/mL,128 µg/mL,128 µg/mL,128 µg/mL,128 µg/mL,256 µg/mL,128 µg/mL,128 µg/mL,128 µg/mL,128 µg/mL,128 µg/mL,250 µg/mL,
O=C(NC(=O)c1c(F)cccc1F)Nc1cc(Cl)c(OC(F)(F)C(F)C(F)(F)F)cc1Cl (stereo unspecified) [LUFENURON],9 µg,> 512 µg/mL,> 512 µg/mL,> 512 µg/mL,> 512 µg/mL,> 512 µg/mL,>512 µg/mL,>512 µg/mL,>512 µg/mL,>512 µg/mL,>512 µg/mL,>512 µg/mL,>512 µg/mL,>512 µg/mL,> 1000 µg/mL,
Cc1cc(NC(=O)NC(=O)c2ccc(Cl)cc2)c(C(C)C)cc1O,18 µg,512 µg/mL,256 µg/mL,128 µg/mL,128 µg/mL,256 µg/mL,64 µg/mL,32 µg/mL,>512 µg/mL,32 µg/mL,64 µg/mL,32 µg/mL,32 µg/mL,32 µg/mL,> 1000 µg/mL,< 2%
Cc1cc(NC(=O)NC(=O)c2ccccc2F)c(C(C)C)cc1O,12.5 µg,> 512 µg/mL,> 512 µg/mL,> 512 µg/mL,> 512 µg/mL,> 512 µg/mL,>512 µg/mL,16 µg/mL,32 µg/mL,16 µg/mL,>512 µg/mL,<4 µg/mL,16 µg/mL,16 µg/mL,> 1000 µg/mL,< 2%
C[C@@H]1[C@H](O)[C@@H](C)/C=C/C=C/C=C/C=C/C=C/C=C/C=C/[C@H](O[C@@H]2O[C@H](C)[C@@H](O)[C@H](N)[C@@H]2O)C[C@@H]2O[C@](O)(C[C@@H](O)C[C@@H](O)[C@H](O)CC[C@@H](O)C[C@@H](O)CC(=O)O[C@H]1C)C[C@H](O)[C@H]2C(=O)O [AMPHOTERICIN B],,,,,,,,,,,,,,,8 µg/mL,
Cc1cc(NC(=S)NC(=O)c2ccccc2F)c(C(C)C)cc1O,12.6 µg,256 µg/mL,128 µg/mL,> 512 µg/mL,256 µg/mL,> 512 µg/mL,128 µg/mL,128 µg/mL,>512 µg/mL,128 µg/mL,32 µg/mL,64 µg/mL,128 µg/mL,512 µg/mL,> 1000 µg/mL,< 2%
Cc1cc(NC(=S)NC(=O)c2ccccc2)c(C(C)C)cc1O,23.6 µg,> 512 µg/mL,> 512 µg/mL,> 512 µg/mL,> 512 µg/mL,512 µg/mL,128 µg/mL,32 µg/mL,>512 µg/mL,32 µg/mL,64 µg/mL,16 µg/mL,32 µg/mL,128 µg/mL,> 1000 µg/mL,< 2%
Cc1cc(NC(=S)NC(=O)c2c(F)cccc2F)c(C(C)C)cc1O,11.3 µg,> 512 µg/mL,> 512 µg/mL,256 µg/mL,128 µg/mL,> 512 µg/mL,256 µg/mL,64 µg/mL,>512 µg/mL,64 µg/mL,512 µg/mL,32 µg/mL,64 µg/mL,128 µg/mL,> 1000 µg/mL,< 2%
Cc1cc(NC(=O)NC(=O)c2ccccc2Cl)c(C(C)C)cc1O,16.4 µg,> 512 µg/mL,512 µg/mL,256 µg/mL,128 µg/mL,256 µg/mL,128 µg/mL,256 µg/mL,>512 µg/mL,>512 µg/mL,256 µg/mL,256 µg/mL,128 µg/mL,128 µg/mL,> 1000 µg/mL,< 2%
Cc1cc(NC(=O)NC(=O)c2ccc(F)cc2)c(C(C)C)cc1O,14.9 µg,> 512 µg/mL,> 512 µg/mL,> 512 µg/mL,> 512 µg/mL,> 512 µg/mL,>512 µg/mL,16 µg/mL,32 µg/mL,16 µg/mL,>512 µg/mL,<4 µg/mL,16 µg/mL,16 µg/mL,> 1000 µg/mL,< 2%
Cc1cc(NC(=S)NC(=O)c2ccccc2Cl)c(C(C)C)cc1O,13 µg,> 512 µg/mL,> 512 µg/mL,> 512 µg/mL,> 512 µg/mL,512 µg/mL,64 µg/mL,64 µg/mL,>512 µg/mL,64 µg/mL,128 µg/mL,32 µg/mL,64 µg/mL,>512 µg/mL,> 1000 µg/mL,< 2%
Cc1cc(NC(=O)NC(=O)c2ccccc2)c(C(C)C)cc1O,21.5 µg,> 512 µg/mL,> 512 µg/mL,> 512 µg/mL,> 512 µg/mL,> 512 µg/mL,512 µg/mL,>512 µg/mL,>512 µg/mL,>512 µg/mL,>512 µg/mL,>512 µg/mL,256 µg/mL,>512 µg/mL,> 1000 µg/mL,< 2%
